This is an account of results in paper PMC9304199, “A small molecule CFTR potentiator restores ATP‐dependent channel gating to the cystic fibrosis mutant G551D‐CFTR” (British Journal of Pharmacology, 2022).

In this experiment the target is F508del‐CFTR (Homo sapiens, UniProt P13569, DEL508-508). Briefly: Single-channel recording in excised inside-out membrane patches, F508del‐CFTR. Type of experiment: biochemical. Set-up: expressed in transfected cells; BHK cells from MD Amaral. To be noted: for reduction of interburst interval (IBI): single active channel; for Emax: read-out: Maximal effect (%) (95% CI). On the procedure: For CFTR studies using automated electrophysiology and single-channel recording, we used baby hamster kidney (BHK) cells (RRID:CVCL_1915) and human embryonic kidney (HEK) 293 cells (RRID:CVCL_0045) stably expressing wild-type human CFTR and the CFTR variants F508del- and […] et al., [2002]; Xu et al., [2014]). […] HEK cells expressing CFTR variants were generated using the Flp-InTM system as described above for F508del- and G551D-CFTR-expressing FRT cells. They were cultured in Dulbecco's modified Eagle's medium (glucose, 1.5 g·L^-1; sodium pyruvate, 110 mg·L^-1) supplemented with 10% FBS (PAA Laboratories), GlutaMAXTM and hygromycin-B (150 μg·ml^-1; InvitrogenTM, Thermo Fisher Scientific) at 37°C in a humidified atmosphere with 5% CO2. Prior to study, F508del-CFTR expressed in HEK cells was trafficked to the plasma membrane by low temperature incubation (27°C for 24-72 h). […] CFTR Cl^- channels were recorded in excised inside-out membrane patches using an Axopatch 200B patch-clamp amplifier and pCLAMP software (version 10.3) (RRID:SCR_011323) (both from Molecular Devices, San Jose, CA, USA) (Sheppard & Robinson, [1997]). […] Within 2 min after membrane patch excision, we added the catalytic subunit of protein kinase A (PKA; 75 nM) and ATP (1 mM) to the intracellular solution to activate CFTR Cl^- channels. To minimise channel rundown, we added PKA and millimolar concentrations of ATP to all intracellular solutions and clamped voltage at -50 mV. […] We reduced the ATP concentration when testing CFTR potentiators on wild-type CFTR to observe their effects more clearly. […] Instead, specific interventions with CFTR potentiators were compared with the pre-intervention control period made with the same concentration of ATP and PKA, but without test compounds. […] To determine channel number, we used the maximum number of simultaneous channel openings observed during an experiment (Cai et al., [2006]). To minimise errors, we used experimental conditions that robustly potentiate channel activity and verified that recordings were of sufficient length to ascertain the correct number of channels ([…] et al., [1994]). […] Therefore, Po values for G551D-CFTR are expressed as apparent Po (Po(app)) values. Single-channel currents were directly acquired to a computer hard disc after filtering at a corner frequency (f c) of 500 Hz with an eight-pole Bessel filter (model LHBF-48×; npi electronic GmbH, Tamm, Germany) and digitising at a sampling rate of 5 kHz using a Digidata 1440A interface (Molecular Devices) and pCLAMP software. To measure single-channel current amplitude (i), Gaussian distributions were fit to current amplitude histograms. For Po and burst analyses, lists of open- and closed-times were created using a half-amplitude crossing criterion for event detection and dwell-time histograms constructed as previously described (Sheppard & Robinson, [1997]); transitions < 1 ms were excluded from the analysis (eight-pole Bessel filter rise time [T 10-90] ~ 0.73 ms at f c = 500 Hz). Histograms were fitted with one or more component exponential functions using the maximum likelihood method. […] The mean interburst interval (TIBI) was calculated using the equation (Cai et al., [2006]): (1) Po=Tb/TMBD+TIBI, where T b = (mean burst duration) × (open probability within a burst). Mean burst duration (T MBD) and open probability within a burst (Po[burst]) were determined directly from experimental data using pCLAMP software.
F508del‐CFTR, sequence (P13569 with tags, fused parts or gaps DEL508-508): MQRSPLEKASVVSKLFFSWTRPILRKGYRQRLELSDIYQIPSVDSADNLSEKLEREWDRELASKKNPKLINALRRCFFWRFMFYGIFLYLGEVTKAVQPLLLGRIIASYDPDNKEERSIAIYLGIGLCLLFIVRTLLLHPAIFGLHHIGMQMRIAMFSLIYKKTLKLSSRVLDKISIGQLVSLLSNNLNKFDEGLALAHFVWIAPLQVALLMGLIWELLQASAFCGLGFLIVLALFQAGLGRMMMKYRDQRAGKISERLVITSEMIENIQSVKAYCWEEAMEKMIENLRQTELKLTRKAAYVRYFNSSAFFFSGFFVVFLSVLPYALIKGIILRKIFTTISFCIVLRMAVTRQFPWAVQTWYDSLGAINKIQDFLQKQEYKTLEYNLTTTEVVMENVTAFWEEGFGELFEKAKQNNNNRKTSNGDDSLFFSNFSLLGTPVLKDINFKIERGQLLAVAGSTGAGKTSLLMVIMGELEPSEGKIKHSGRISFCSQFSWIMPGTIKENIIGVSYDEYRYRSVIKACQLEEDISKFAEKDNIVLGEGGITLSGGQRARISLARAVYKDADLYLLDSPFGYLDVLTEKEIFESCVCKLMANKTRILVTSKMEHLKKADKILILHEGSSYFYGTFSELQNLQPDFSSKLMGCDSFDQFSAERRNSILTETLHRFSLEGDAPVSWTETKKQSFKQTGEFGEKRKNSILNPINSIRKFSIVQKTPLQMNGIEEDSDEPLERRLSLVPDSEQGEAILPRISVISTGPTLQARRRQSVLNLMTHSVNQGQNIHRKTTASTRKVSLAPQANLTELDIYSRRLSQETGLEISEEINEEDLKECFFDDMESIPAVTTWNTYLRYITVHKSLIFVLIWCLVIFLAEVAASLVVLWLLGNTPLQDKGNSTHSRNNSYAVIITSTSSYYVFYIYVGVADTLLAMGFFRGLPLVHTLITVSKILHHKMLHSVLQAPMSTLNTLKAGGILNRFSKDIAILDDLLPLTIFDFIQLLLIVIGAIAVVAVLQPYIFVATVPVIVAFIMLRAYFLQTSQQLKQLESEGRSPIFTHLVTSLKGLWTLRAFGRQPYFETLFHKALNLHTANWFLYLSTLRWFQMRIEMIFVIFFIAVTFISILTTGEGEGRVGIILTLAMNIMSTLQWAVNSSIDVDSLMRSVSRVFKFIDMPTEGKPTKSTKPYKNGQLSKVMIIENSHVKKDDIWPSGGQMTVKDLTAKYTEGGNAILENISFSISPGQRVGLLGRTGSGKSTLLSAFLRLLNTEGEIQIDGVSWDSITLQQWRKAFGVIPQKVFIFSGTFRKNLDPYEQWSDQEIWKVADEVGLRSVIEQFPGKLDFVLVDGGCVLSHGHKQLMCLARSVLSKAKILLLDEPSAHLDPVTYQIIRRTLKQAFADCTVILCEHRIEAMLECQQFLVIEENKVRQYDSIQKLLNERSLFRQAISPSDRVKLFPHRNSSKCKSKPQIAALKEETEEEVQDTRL

The mark [1] stands for this setting: F508del‐CFTR Cl− channels, excised inside-out patches, 23°C, data normalised to ivacaftor 1 μM, read-out: EC50 (μM) (95% CI).
Where [2] appears, read: low temperature-rescued F508del‐CFTR, ATP 1 mM, PKA 75 nM, ~23°C.
The mark [3] stands for this setting: low temperature-rescued F508del‐CFTR, ATP 1 mM, PKA 75 nM, ~23°C, read-out: EC50 for potentiation of Po.
[4] abbreviates: low temperature-rescued F508del‐CFTR, compound 10 μM, ATP 1 mM.
Setting [5] is: low temperature-rescued F508del‐CFTR, compound 1 μM, ATP 1 mM.

Where two headings read alike, the source gives them in different places.

The term EC50 denotes the midpoint of the concentration-response curve. Turning to `Cc1ncccc1CNC(=O)c1ccc2c(c1)CC[C@H]1C[C@](O)(CCC(F)(F)F)CC[C@]21Cc1ccccc1` (racemic) [CP‐628006, rac‐(4bR,7R,8aS)‐4b‐benzyl‐7‐hydroxy‐N‐((2‐methylpyridin‐3‐yl)methyl)‐7‐(3,3,3‐trifluoropropyl)‐4b,5,6,7,8,8a,9,10‐octahydrophenanthrene‐2‐carboxamide], the Emax was determined as 144%. The EC50 under setting [1] was found to be 0.5 µM. The Po max under setting [2] is reported as 0.62. Under setting [3], the EC50 was determined as 0.4 µM. For the same compound, the “Po max of ATP-dependence in presence of compound” value (low temperature-rescued F508del‐CFTR, compound 300 nM, ATP 0.1–3 mM) amounted to 0.33. Under setting [4], the “enhancement of Po” value was found to be 13 ± 5 fold and the “reduction of interburst interval (IBI)” value came out at 15 fold.
In the case of `CC(C)(C)c1cc(C(C)(C)C)c(NC(=O)c2c[nH]c3ccccc3c2=O)cc1O` [ivacaftor, reference compound], the Emax was 103%. The EC50 under setting [1] worked out at 0.008 µM. Moreover, under setting [2], the Po max came to 0.51. Besides, under setting [3], the EC50 was 0.01 µM. Moreover, under setting [5], the “enhancement of Po” value was found to be 9 ± 5 fold and the “reduction of interburst interval (IBI)” value amounted to 15 fold.
